Experimental data reported in US12263156B2, “Use of small molecule inhibitors of the BfrB:Bfd interaction in biofilms” (priority 2020, dated 2025).
Where “and” joins values, the source holds several entries; their conditions need not be identical. Equal values may be shown once.

How the values were obtained:
BfrB (apo-BfrB) = BfrB (apo-BfrB) (Pseudomonas aeruginosa (strain ATCC 15692 / DSM 22644 / CIP 104116 / JCM 14847 / LMG 12228 / 1C / PRS 101 / PAO1), UniProt Q9HY79); assay: Fluorescence polarization measurement of dissociation constant (Kd); format: binding; conditions: for Kd: 100 mM potassium phosphate buffer pH 7.6, 1 mM TCEP, 0.5% DMSO, average ± SD
Protocol: Values were obtained in 100 mM potassium phosphate buffer (pH 7.6) containing 1 mM TCEP and 0.5% DMSO. The initial concentrations of KM-5-25 and KM-5-66 were 5 μM. The Kd values are the average and standard deviation from three independent measurements. […] The IC50 values are the average and the standard derivations from three independent experiments.
Prior to testing the effect that the 4-substituted isoindoline-1,3-dione derivatives might exert on P. aeruginosa cells, the strength of their interaction with BfrB was evaluated in vitro with a fluorescence polarization assay developed based on the intrinsic fluorescence of the isoindoline-1,3-dione moiety.

Aqueous solubility = format: physicochemical; conditions: aqueous solution
P. aeruginosa PAO1 = assay: Half maximal inhibitory concentration (IC50) of planktonic growth, CFU/mL enumeration; format: cell-based, Pseudomonas aeruginosa; conditions: for IC50: Pseudomonas aeruginosa, PAO1
Protocol: Chemicals were purchased from Fisher Scientific (Waltham, MA) unless otherwise stated. P. aeruginosa PAO1 was obtained from the University of Washington Genome center.^80 The PAO1 strain expressing enhanced yellow fluorescent protein (EYFP) was prepared as described in Soldano, A.; Yao, H.; Chandler, J. R.; Rivera, M. (2020) Inhibiting Iron Mobilization from Bacterioferritin in Pseudomonas aeruginosa Impairs Biofilm Formation Irrespective of Environmental Iron Availability. ACS Infect. Dis. 6, 447-458. 10.1021/acsinfecdis.9b00398.^26 Clinical isolates of P. aeruginosa were purchased from JMI Laboratories (North Liberty, IA, USA). […] Starter cultures of P. aeruginosa PAO1 in 5 mL LB media were grown for 13 hours in 50 mL conical tubes at 37° C. and 220 rpm. For biofilm experiments, a EYFP-expressing P. aeruginosa strain was routinely grown in Pseudomonas Isolation (PI) media (20 g L^−1 peptone, 0.3 g L^−1 MgCl2·6H O, 10 g L^−1 K2SO4, 25 mg L^−1 irgasan, and 20 mL L^−1 glycerol, pH 7.0). Starter cultures were grown from a single colony at 37° C. and shaking at 220 rpm for 14 hours in 5 mL PI media supplemented with 10 μM Fe. Pellicle biofilms were cultured for 48 hours at 30° C. in PI media supplemented with 20 μM Fe. Surface-attached biofilms were cultured in AB minimal media^81 supplemented with trace metals [0.15 μM (NH4)2MoO4, 3 μM CuSO4, 2 μM Co(NO3)2, 9.4 μM Na2B4O7, and 7.6 μM ZnSO4], 3 mM glucose and 15 μM Fe. Iron supplementation was carried out by addition of a small volume of filter-sterilized 10 mM (NH4)2Fe(SO4)2 (pH˜2.0) solution. […]; IC50 values (Table 1 below) were determined as reported previously^25 with small modifications. In brief: precultures of P. aeruginosa PAO1 (5 mL) were grown in LB media for 13 hours at 37° C. and 220 rpm in 50 mL conical tubes (VWR International, PA). The cells were centrifuged for 5 min at 4,000 rpm and 4° C., washed two times and then diluted in buffer (100 mM KH2PO4 and 15 mM (NH4)2SO4 to an optical density at 600 nm (OD600) of 0.1. A small volume of compound stock solution (10 mM) was transferred to a microcentrifuge tube, initially diluted with DMSO to 20 μL, and then diluted to 1 mL with preculture cell suspension in defined media with OD600=0.0001, so the final DMSO concentration is 2%. The resultant cell suspension (200 μL) was transferred to a clear-bottom polystyrene 96-well plate (VWR International, PA) covered with a lid and incubated at 35° C. and 205 cpm for 24 h in a Synergy H1 microplate reader (Biotek Instruments Inc., Winooski, VT). The cell cultures were serially diluted and then plated on PI Agar (PIA; BD Biosciences, San Jose, CA) plates for enumeration of viable cells (CFU/mL). The % growth was calculated from the ratio CFU/mL(treated)/CFU/mL(untreated control). To calculate the IC50 values, the % growth was plotted as a function of compound concentration, expressed as log[compound] (μM), and fitted to the 4-parameter logistic model describing the sigmoid-shaped response pattern (equation 1),^83 where b is the slope factor, max is the upper asymptote (plateau), and min is the lower asymptote. Values are the average and standard deviation from three independent experiments.

[1] = test system: EYFP-expressing P. aeruginosa PAO1 pellicle biofilms; assay: Determination of viable cells (CFU/mL) in pellicle biofilms; conditions: for % cell survival, CFU/mL(after treatment)/CFU/mL(pre-treatment): 2-day old pellicles, 24 h
Protocol: (§1) Pellicle biofilms of EYFP-expressing P. aeruginosa PAO1 or clinical isolates were grown in PI media supplemented with 20 μM Fe. Starter cultures were diluted to OD600=0.001 in 4 mL media, placed in 35×10 mm petri dishes and incubated statically at 30° C. for 48 hours. The pellicles were transferred onto circular (1.5 cm diameter) glass coverslips by gently allowing the surface of a coverslip to contact a pellicle. The pellicle-adhered coverslip was washed in PBS and then deposited on top of 1.5 mL of AB challenge media contained in a well of a 12-well microplate, with the pellicle exposed to the media. […] The coverslip-adhered pellicles were exposed to challenge media at 30° C. for 24 hours, changing the challenge media every 12 hours by transferring the pellicle-adhered coverslip to a new plate containing pre-warmed challenge media.
Pellicle biofilms were grown as described above. Planktonic and loosely attached cells were washed (3 times) by immersing the coverslip-adhered pellicles (biofilm facing up) into a well of a 12-well plate containing 3 mL of PBS, and incubating (5 min) with gentle rocking. To remove the pellicle from the coverslip, break the extracellular matrix and release cells from the biofilm, the coverslip-adhered pellicle was placed in a 50 mL conical tube containing a 2 mL suspension of zirconia beads (0.1 mm diameter, BioSpec Products), 10 mL PBS, 0.2 μg/mL alginate lyase and 0.2 μg/mL DNAse. The resultant mixture was incubated at room temperature for 3 min, followed by vigorous vortexing for 4 min. After sedimentation of the zirconia beads, a 100 μL aliquot was used for serial dilution and plating on PIA plates for subsequent enumeration of viable cells (CFU/mL).
To assess the efficacy of antibiotics and compounds with an approach complementary to imaging with CLSM, dispersing biofilm cells for subsequent enumeration of viable cells (CFU/mL) was resorted to. […] The biofilms were then harvested, and the cells dispersed into sterile PBS by vortexing in the presence of zirconia beads, prior to plating the cell suspensions for subsequent enumeration of CFU/mL. […] A characteristic of cells in the VBNC state is their inability to develop into colonies on routine culture media, even though the cells remain viable for long periods of time.^58-59 Evidence that bacterial cells can enter the VBNC has been obtained by several distinct methods,^59 one of which is the utilization of bacteria engineered to constitutively express bioluminescent proteins, and using the bioluminescence as a reporter of metabolic activity.

[2] = test system: EYFP-expressing P. aeruginosa PAO1 pellicle biofilms; assay: Pellicle biofilm assay (CLSM imaging, COMSTAT biomass); format: cell-based, Pseudomonas aeruginosa; conditions: 24 h; for tolerance or susceptibility of pellicle biofilms (CLSM): 2-day old pellicles, ciprofloxacin, tobramycin 25× and 50× the MIC, colistin above 10× the MIC
Protocol: as §1
Excess fluorescent dye was washed with PBS, the coverslip was mounted on a glass slide using 5 μL of SlowFade (Invitrogen, Carlsbad, CA) and the edges sealed with fingernail polish. CLSM image stacks (z-step size of 0.3 μm) were acquired with the aid of a Leica TCS SP8 microscope, as described above. Quantitative analysis was performed by determination of pellicle biomass using COMSTAT^54 and the Otsu method of automatic thresholding.^85
To expand the observations made with flow cell biofilms into a second biofilm model, the susceptibility of biofilms grown at the air-liquid interface (pellicles) was also studied.^56-57 Pellicle biofilms (henceforth pellicles) are an attractive alternative platform to study biofilms because pellicles are amenable to imaging by CLSM and to harvesting, which can be desirable for additional biofilm analysis.^26 To determine the susceptibility of pellicles to antibiotics or inhibitors of the BfrB-Bfd complex, 2-day old pellicles of EYFP-expressing P. aeruginosa cells were cultured in PI media supplemented with 20 μM Fe. The pellicles were transferred onto glass coverslips by allowing the surface of the coverslip to contact a pellicle.

P. aeruginosa = conditions: reported MIC; cited from earlier work
[3] = test system: EYFP-expressing P. aeruginosa PAO1 biofilms; assay: Flow cell biofilm assay (CLSM imaging, COMSTAT biomass); format: cell-based, Pseudomonas aeruginosa; conditions: 3-day old flow cell biofilms, 24 h treatment at 25× the MIC
Protocol: ACS Infect. Dis. […] The experimental shear stress was 0.14-dyn/cm^2 (shear rate=14 s^−1, pressure=7.1 mbar, flow rate=0.4 mL/min) and the switch time was set to 540 s. […] During biofilm growth and challenge with antibacterial, the culture medium in the reservoirs was removed every 12 hours and replaced with fresh pre-warmed medium. […] The biofilms were imaged with the aid of a Leica TCS SP8 confocal microscope (Leica Microsystems, Germany) using a HC PL apo CS2 63×/1.4 oil objective. […] Image stacks were acquired with a z-step size of 0.3 μm at randomly chosen positions. The Leica Application Suite X (LAS-X) software was used for image stack processing.^54 Quantitative analysis of biofilm biomass was performed using the COMSTAT computer program^54 and the Otsu method of automatic thresholding.^85
The treated biofilms were counterstained with the cell impermeable fluorescent nucleic acid dye Sytox Red and then imaged with the aid of confocal laser scanning microscopy (CLSM).

[4] = planktonic growth, 24 h, 35° C, defined media, 2% DMSO, average ± SD of three experiments

O=C1NC(=O)c2c(NCc3c(O)cccc3Cl)cccc21 [KM-5-29, 4-((6-Chloro-2-hydroxybenzyl)amino)isoindoline-1,3-dione]
Kd (BfrB (apo-BfrB)): 6 ± 0.5 µM | aqueous solubility (in words) (Aqueous solubility): poorly soluble in aqueous solution

O=C1NC(=O)c2c(NCCCc3cc(Cl)ccc3O)cccc21 [KM-5-54]
Kd (BfrB (apo-BfrB)): 0.22 ± 0.04 µM | fold increase of binding affinity relative to JAG-5-6 (BfrB (apo-BfrB); relative to JAG-5-6): 2 fold | aqueous solubility (in words) (Aqueous solubility): poor water solubility

O=C1NC(=O)c2c(NCc3cc(O)cc(Cl)c3)cccc21 [KM-5-50, 4-((5-Chloro-3-hydroxybenzyl)amino)isoindoline-1,3-dione]
Kd (BfrB (apo-BfrB)): 11 ± 2 µM | IC50 (P. aeruginosa PAO1; [4]): 82 ± 16 µM

O=C1NC(=O)c2c(NCc3ccccc3O)cccc21 [Analog 11]
IC50 (P. aeruginosa PAO1; [4]): 258 ± 23 µM

NC[C@H]1O[C@H](O[C@H]2[C@H](O)[C@@H](O[C@H]3O[C@H](CO)[C@@H](O)[C@H](N)[C@H]3O)[C@H](N)C[C@@H]2N)[C@H](N)C[C@@H]1O [tobramycin, reference compound]
% cell survival, CFU/mL(after treatment)/CFU/mL(pre-treatment) ([1]; antibiotic at 25× the MIC): ~70% | % cell survival, CFU/mL(after treatment)/CFU/mL(pre-treatment) ([1]; antibiotic at 50× the MIC): ~70% | tolerance or susceptibility of pellicle biofilms (CLSM) [2]: tolerant | MIC (P. aeruginosa): 0.5 μg/mL and 1.07 μM | % survival (biomass remaining viable, COMSTAT) [3]: ~70%

O=C1NC(=O)c2c(NCc3cccc(O)c3)cccc21 [Analog 12]
Kd (BfrB (apo-BfrB)): 21 ± 3 µM | IC50 (P. aeruginosa PAO1; [4]): > 120 µM

O=C1NC(=O)c2c(NCCCc3cccc(O)c3)cccc21 [Analog 16]
Kd (BfrB (apo-BfrB)): 1.5 ± 0.25 µM | IC50 (P. aeruginosa PAO1; [4]): 121 ± 4 µM | relative compound activity (rank order) ([1]; pellicles treated 24 h with 50 μM of each analog): KM-5-66>KM-5-25>16>11

colistin
% cell survival, CFU/mL(after treatment)/CFU/mL(pre-treatment) ([1]; antibiotic at 25× the MIC): ~10% | % cell survival, CFU/mL(after treatment)/CFU/mL(pre-treatment) ([1]; antibiotic at 50× the MIC): ~1% | tolerance or susceptibility of pellicle biofilms (CLSM) [2]: susceptible | fluorescence signal from viable cells expressing EYFP ([2]; colistin at 50× the MIC): undetectable | MIC (P. aeruginosa): 1 μg/mL and 0.79 μM | % survival (biomass remaining viable, COMSTAT) [3]: ~20%

O=C1NC(=O)c2c(NCc3cccc(Cl)c3O)cccc21 [KM-5-30, 4-((3-Chloro-2-hydroxybenzyl)amino)isoindoline-1,3-dione]
Kd (BfrB (apo-BfrB)): 6 ± 1 µM | IC50 (P. aeruginosa PAO1; [4]): 156 ± 30 µM | fold larger IC50 relative to KM-5-25 (P. aeruginosa PAO1; relative to KM-5-25): ~2.5 fold

O=C1NC(=O)c2c(NCCCc3cc(F)ccc3O)cccc21 [JAG-5-6]
Kd (BfrB (apo-BfrB)): 0.43 ± 0.07 µM | fold lowered Kd relative to KM-5-28 (BfrB (apo-BfrB); relative to KM-5-28): ~3 fold | IC50 (P. aeruginosa PAO1; [4]): 54 ± 9 µM | fold decrease in IC50 relative to KM-5-28 (P. aeruginosa PAO1; relative to KM-5-28): ~2 fold

O=C(O)c1cn(C2CC2)c2cc(N3CCNCC3)c(F)cc2c1=O [ciprofloxacin]
MIC (P. aeruginosa): 0.25 μg/mL and 0.75 μM

O=C1NC(=O)c2c(NCc3cc(F)ccc3O)cccc21 [JAG-5-7, 4-((5-Fluoro-2-hydroxybenzyl)amino)isoindoline-1,3-dione]
Kd (BfrB (apo-BfrB)): 7 ± 2 µM | IC50 (P. aeruginosa PAO1; [4]): 128 ± 26 µM

O=C1NC(=O)c2c(NCCCc3ccccc3O)cccc21 [KM-5-28]
Kd (BfrB (apo-BfrB)): 1.4 ± 0.2 µM | IC50 (P. aeruginosa PAO1; [4]): 96 ± 1 µM

Nc1cccc2c1C(=O)NC2=O [Analog 8]
IC50 (μM) (P. aeruginosa PAO1; [4]): Not active

O=C1NC(=O)c2c(NCCCc3cc(O)cc(O)c3)cccc21 [KM-5-57]
Kd (BfrB (apo-BfrB)): 2.5 ± 0.4 µM | fold increase of Kd relative to 16 (BfrB (apo-BfrB); relative to 16): ~1.7 fold | IC50 (P. aeruginosa PAO1; [4]): > 200 µM
